Assay results taken from paper PMC6848746 (Psychopharmacology, 2019).

Key:
β1 = β1 (Homo sapiens, UniProt P08588); experiment: Radioligand binding
SERT = SERT (Homo sapiens, UniProt P31645); experiment: Radioligand binding
β2 = β2 (Homo sapiens, UniProt P07550); experiment: Radioligand binding
NET = NET (Rattus norvegicus, UniProt Q63380); experiment: NET-mediated release of [3H]MPP+ from rat brain synaptosomes; format: biochemical; conditions: read-out: NET-mediated release Emax
DAT = DAT (Rattus norvegicus, UniProt P23977); experiment: DAT-mediated release of [3H]MPP+ from rat brain synaptosomes; format: biochemical; conditions: for DAT/NET ratio: (DAT EC50)^-1 ÷ (NET EC50)^-1; for DAT/NET ratio / DAT/SERT ratio: higher value = greater DAT selectivity; for DAT/SERT ratio: (DAT EC50)^-1 ÷ (SERT EC50)^-1; for Emax: read-out: DAT-mediated release Emax; for fold lower release potency at DAT: relative to SERT (MDAI: relative to SERT and NET), synaptosomal release
σ2 = molecular target: T1, σ2 (Rattus norvegicus, UniProt Q5U3Y7); experiment: Radioligand binding
T1 sequence (Q5U3Y7 1-176): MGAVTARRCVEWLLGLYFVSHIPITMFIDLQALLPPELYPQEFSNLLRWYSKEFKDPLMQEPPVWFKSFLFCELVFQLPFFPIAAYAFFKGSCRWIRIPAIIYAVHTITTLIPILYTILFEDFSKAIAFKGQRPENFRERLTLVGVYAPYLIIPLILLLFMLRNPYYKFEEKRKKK

D2 = D2 (Homo sapiens, UniProt P14416); experiment: Radioligand binding
α1D = molecular target: T2, α1D (Homo sapiens, UniProt P25100); experiment: Radioligand binding
T2 sequence (P25100 1-572): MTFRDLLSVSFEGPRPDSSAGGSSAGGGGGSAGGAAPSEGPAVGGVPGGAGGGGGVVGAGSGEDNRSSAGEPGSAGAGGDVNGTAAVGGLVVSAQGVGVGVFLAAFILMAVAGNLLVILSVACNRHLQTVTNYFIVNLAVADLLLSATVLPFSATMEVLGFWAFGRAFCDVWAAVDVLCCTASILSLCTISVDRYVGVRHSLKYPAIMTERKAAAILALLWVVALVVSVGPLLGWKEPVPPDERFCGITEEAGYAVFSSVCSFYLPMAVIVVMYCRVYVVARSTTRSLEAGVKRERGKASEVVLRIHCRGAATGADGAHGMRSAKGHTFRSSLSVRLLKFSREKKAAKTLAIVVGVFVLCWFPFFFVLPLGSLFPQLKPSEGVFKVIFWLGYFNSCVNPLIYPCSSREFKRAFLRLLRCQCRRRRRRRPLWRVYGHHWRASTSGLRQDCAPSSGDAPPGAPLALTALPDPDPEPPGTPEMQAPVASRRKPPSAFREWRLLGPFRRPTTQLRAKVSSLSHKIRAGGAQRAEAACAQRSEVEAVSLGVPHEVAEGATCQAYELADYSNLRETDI

D3 = D3 (Homo sapiens, UniProt P35462); experiment: Radioligand binding
5-HT2A = 5-HT2A (Homo sapiens, UniProt P28223); experiment: Radioligand binding
α1B = molecular target: T3, α1B (Homo sapiens, UniProt P35368); experiment: Radioligand binding
T3 sequence (P35368 1-520): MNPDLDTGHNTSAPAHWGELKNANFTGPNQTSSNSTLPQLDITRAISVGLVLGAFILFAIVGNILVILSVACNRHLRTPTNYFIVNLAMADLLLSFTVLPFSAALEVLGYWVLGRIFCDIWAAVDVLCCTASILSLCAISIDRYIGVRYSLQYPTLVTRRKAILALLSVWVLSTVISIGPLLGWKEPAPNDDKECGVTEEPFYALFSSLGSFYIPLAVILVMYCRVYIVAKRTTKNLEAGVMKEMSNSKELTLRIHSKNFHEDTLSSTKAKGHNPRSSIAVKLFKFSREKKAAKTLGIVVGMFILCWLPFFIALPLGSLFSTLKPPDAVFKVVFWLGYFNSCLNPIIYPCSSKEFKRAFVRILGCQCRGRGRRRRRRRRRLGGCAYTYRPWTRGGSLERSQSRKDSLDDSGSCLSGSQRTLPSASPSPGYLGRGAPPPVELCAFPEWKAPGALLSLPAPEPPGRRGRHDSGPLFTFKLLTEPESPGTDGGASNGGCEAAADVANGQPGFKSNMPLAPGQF

5-HT1B = 5-HT1B (Homo sapiens, UniProt P28222); experiment: Radioligand binding
D1 = D1 (Homo sapiens, UniProt P21728); experiment: Radioligand binding
5-HT2B = 5-HT2B (Homo sapiens, UniProt P41595); experiment: Radioligand binding
5-HT5A = 5-HT5A (Homo sapiens, UniProt P47898); experiment: Radioligand binding
α2C = molecular target: T4, α2C (Homo sapiens, UniProt P18825); experiment: Radioligand binding; conditions: for fold lower affinity for α2C compared to 2-AI: binding, [3H]rauwolscine
T4 sequence (P18825 1-462): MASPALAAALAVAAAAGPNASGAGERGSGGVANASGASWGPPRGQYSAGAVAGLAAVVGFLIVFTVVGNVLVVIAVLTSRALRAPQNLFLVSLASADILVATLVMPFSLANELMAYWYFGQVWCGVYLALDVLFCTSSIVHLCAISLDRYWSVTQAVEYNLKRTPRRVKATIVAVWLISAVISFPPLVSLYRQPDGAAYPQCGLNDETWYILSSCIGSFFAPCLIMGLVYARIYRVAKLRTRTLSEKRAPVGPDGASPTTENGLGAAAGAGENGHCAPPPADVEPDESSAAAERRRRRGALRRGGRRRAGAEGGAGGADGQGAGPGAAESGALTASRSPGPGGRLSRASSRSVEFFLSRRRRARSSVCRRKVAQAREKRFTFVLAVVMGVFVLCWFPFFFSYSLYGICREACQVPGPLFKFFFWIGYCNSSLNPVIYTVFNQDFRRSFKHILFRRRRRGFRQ

Chain of D3 (P35462 whole entry): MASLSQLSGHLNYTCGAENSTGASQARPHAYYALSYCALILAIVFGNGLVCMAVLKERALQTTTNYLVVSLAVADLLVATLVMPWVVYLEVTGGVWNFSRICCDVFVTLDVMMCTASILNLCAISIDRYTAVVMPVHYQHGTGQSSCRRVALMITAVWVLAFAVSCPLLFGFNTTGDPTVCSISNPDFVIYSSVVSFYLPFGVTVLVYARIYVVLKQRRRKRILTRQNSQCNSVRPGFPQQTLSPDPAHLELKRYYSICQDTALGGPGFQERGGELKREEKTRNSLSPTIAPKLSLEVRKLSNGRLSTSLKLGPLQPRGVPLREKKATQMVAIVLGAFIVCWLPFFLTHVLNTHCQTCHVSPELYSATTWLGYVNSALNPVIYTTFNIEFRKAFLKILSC
Chain of DAT (P23977 whole entry): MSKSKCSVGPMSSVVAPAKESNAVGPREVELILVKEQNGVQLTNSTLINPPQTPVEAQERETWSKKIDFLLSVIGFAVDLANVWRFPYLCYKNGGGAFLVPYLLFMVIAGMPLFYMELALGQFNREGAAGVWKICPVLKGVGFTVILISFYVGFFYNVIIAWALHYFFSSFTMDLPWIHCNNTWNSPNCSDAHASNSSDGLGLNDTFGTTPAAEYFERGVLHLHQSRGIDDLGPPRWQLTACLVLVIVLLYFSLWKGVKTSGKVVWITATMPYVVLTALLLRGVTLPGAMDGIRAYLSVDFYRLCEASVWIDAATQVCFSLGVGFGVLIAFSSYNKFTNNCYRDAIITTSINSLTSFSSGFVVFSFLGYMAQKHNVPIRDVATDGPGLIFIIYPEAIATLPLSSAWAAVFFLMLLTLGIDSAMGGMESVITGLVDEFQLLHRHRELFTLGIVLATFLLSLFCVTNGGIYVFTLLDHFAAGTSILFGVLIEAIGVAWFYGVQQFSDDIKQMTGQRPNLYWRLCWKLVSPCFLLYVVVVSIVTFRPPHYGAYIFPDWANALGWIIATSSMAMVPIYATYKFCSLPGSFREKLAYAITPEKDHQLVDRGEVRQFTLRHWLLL
Chain of 5-HT2B (P41595 whole entry): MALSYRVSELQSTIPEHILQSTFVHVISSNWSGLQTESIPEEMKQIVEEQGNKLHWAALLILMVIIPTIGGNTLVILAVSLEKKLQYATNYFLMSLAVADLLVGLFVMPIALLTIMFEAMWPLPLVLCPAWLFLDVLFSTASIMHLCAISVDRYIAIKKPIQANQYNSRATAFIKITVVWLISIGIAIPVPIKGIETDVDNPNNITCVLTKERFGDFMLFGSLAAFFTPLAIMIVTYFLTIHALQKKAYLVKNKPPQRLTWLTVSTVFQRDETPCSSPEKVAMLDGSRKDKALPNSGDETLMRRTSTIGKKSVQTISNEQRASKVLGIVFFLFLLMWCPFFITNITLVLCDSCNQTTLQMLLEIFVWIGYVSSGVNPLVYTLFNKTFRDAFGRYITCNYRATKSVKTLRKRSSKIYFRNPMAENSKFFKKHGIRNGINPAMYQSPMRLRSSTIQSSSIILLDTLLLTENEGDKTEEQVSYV
Chain of D1 (P21728 whole entry): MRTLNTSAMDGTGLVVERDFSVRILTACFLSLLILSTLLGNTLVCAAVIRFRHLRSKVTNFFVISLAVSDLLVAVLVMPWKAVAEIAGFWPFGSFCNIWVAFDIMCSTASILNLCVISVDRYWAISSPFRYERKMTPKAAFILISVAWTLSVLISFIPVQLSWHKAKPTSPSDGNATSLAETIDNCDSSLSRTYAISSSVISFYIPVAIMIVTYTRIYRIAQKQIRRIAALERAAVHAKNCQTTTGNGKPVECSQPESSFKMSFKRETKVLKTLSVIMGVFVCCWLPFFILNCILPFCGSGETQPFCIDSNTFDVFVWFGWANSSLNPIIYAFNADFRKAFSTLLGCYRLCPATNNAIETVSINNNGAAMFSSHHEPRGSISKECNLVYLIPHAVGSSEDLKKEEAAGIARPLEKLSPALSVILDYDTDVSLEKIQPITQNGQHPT
Chain of β1 (P08588 whole entry): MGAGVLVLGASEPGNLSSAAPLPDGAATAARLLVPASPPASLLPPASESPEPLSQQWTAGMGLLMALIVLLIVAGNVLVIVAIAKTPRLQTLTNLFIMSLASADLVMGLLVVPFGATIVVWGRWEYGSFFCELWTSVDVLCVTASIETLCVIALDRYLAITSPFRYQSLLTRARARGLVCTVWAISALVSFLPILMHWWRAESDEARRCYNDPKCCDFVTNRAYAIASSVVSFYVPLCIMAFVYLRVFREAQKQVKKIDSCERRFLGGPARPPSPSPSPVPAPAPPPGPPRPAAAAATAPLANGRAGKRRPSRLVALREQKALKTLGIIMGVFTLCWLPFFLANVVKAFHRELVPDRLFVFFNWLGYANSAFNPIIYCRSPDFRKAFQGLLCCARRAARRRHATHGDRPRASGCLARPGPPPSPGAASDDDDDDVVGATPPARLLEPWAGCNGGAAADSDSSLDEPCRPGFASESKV
Chain of 5-HT1B (P28222 whole entry): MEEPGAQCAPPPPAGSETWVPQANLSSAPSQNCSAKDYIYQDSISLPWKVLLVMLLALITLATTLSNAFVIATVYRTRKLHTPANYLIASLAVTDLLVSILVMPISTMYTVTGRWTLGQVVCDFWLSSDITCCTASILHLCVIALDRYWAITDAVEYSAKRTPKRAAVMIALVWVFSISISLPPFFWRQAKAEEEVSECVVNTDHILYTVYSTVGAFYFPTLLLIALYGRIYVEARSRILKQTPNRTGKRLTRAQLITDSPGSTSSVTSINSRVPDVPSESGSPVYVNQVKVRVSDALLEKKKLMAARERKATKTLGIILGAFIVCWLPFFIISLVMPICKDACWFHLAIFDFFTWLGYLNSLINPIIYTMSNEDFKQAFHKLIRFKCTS
Chain of D2 (P14416 whole entry): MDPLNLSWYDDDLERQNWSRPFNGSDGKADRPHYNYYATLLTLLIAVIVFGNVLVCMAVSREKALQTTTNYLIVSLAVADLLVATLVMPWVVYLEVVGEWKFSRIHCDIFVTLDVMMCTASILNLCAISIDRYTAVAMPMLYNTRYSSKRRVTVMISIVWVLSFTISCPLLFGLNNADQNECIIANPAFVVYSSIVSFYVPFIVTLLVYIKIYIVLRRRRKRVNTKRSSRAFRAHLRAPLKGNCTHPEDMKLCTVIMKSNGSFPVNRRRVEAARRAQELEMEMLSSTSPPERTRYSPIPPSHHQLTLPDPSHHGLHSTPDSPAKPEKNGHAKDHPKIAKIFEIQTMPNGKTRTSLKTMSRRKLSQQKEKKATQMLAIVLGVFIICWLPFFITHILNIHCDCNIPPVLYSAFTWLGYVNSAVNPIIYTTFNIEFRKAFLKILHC
Chain of SERT (P31645 whole entry): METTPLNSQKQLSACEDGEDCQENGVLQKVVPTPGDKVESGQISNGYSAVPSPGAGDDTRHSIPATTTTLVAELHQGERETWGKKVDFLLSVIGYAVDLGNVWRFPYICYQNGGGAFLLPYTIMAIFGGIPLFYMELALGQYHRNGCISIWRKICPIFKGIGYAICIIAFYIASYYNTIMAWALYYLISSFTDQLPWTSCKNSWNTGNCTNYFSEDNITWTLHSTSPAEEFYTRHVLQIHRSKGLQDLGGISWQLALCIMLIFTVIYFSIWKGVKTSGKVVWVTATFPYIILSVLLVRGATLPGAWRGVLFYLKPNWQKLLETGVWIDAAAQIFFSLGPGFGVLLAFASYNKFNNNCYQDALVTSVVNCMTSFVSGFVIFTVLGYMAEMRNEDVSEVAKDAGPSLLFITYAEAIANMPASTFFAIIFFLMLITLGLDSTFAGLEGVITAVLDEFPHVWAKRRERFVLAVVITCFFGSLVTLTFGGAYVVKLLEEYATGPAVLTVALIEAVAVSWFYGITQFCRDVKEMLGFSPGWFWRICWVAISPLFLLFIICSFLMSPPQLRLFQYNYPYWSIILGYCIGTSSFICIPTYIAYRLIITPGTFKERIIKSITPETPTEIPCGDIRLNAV
Chain of 5-HT2A (P28223 whole entry): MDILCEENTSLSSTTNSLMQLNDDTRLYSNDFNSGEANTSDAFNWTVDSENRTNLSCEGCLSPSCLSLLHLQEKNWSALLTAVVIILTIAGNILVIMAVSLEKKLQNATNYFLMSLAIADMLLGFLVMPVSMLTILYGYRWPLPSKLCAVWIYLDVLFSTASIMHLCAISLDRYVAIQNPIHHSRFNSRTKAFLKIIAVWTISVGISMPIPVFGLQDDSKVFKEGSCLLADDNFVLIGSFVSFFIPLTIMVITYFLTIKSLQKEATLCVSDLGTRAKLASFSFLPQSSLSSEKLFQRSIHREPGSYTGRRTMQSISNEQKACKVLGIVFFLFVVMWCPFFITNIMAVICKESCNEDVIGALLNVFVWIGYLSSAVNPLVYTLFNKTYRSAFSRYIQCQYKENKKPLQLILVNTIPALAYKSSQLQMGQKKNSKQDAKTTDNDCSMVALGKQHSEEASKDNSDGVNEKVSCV
Chain of NET (Q63380 1-617): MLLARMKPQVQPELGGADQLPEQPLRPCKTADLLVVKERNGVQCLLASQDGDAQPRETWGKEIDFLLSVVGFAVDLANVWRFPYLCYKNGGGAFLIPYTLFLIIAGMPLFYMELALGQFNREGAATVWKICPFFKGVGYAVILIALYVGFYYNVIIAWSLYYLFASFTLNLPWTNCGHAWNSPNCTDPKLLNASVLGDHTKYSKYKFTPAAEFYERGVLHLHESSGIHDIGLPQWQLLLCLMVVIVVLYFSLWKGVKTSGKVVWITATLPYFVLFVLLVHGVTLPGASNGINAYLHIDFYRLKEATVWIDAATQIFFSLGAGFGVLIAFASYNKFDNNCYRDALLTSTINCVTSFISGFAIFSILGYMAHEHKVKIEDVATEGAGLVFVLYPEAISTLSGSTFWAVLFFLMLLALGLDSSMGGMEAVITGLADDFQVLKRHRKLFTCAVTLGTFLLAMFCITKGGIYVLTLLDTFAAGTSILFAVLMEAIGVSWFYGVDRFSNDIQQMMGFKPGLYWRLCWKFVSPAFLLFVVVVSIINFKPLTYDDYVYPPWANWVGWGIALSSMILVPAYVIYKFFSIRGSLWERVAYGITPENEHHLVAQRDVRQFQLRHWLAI

Row | SMILES | Ki (β1) [µM] | Ki (SERT) [µM] | Ki (β2) [µM] | Emax (NET) [%] | EC50 (DAT) [nM] | DAT/NET ratio (DAT) | DAT/SERT ratio (DAT) | Emax (DAT) [%] | fold lower release potency at DAT (DAT) [fold] | Ki (σ2) [µM] | Ki (D2) [µM] | Ki (α1D) [µM] | Ki (D3) [µM] | Ki (5-HT2A) [µM] | Ki (α1B) [µM] | Ki (5-HT1B) [µM] | Ki (D1) [µM] | Ki (5-HT2B) [µM] | Ki (5-HT5A) [µM] | Ki (α2C) [nM] | other results
1 | NC1Cc2cc3c(cc2C1)OCO3 [MDAI, 5,6-methylenedioxy-2-aminoindan] | > 10 | > 10 | > 10 | 99 | 1330 | 0.09 | 0.08 | 113 | 10 | > 10 | > 10 | > 10 | > 10 | > 10 | > 10 | > 10 | > 10 | > 10 | > 10 | 363 ± 219 | displacement at 5-HT2B receptor (5-HT2B; at 10 μM, primary binding assay): < 50%
2 | NC1Cc2ccccc2C1 [2-AI, 2-aminoindan] | > 10 | > 10 | > 10 | 95 | 439 ± 38 | 0.20 | >22.78 | 106 | – | > 10 | > 10 | > 10 | > 10 | > 10 | > 10 | > 10 | > 10 | > 10 | > 10 | 41 ± 26 | –
3 | COc1ccc2c(c1)CC(N)C2 (stereo not drawn) [5-MeO-AI, 5-methoxy-2-aminoindan] | > 10 | > 10 | > 10 | 101 | 2650 | 0.33 | 0.05 | 117 | 20 | > 10 | > 10 | > 10 | > 10 | > 10 | > 10 | > 10 | > 10 | 4.79 | > 10 | 1220 | fold lower affinity for α2C compared to 2-AI (α2C): 30 fold
4 | COc1cc2c(cc1C)CC(N)C2 (stereo not drawn) [MMAI, 5-methoxy-6-methyl-2-aminoindan] | > 10 | 4.82 | > 10 | 105 | > 10000 | >0.31 | > 0.003 | – | 100 | > 10 | > 10 | > 10 | > 10 | > 10 | > 10 | 2.78 | > 10 | 0.902 ± 0.445 | > 10 | 1380 | fold lower affinity for α2C compared to 2-AI (α2C): 30 fold
